Patent US9237747B2, “Herbicidal compositions comprising 4-amino-3-chloro-5-fluoro-6-(4-chloro-2-fluoro-3-methoxyphenyl) pyridine-2-carboxylic acid or a derivative thereof and insecticides” (priority 2013, dated 2016)
Where “and” joins values, the source holds several entries; their conditions need not be identical. Equal entries are not always repeated. Where two headings read alike, the source gives them in different places.

Experiments:
BRAPP = experiment: Postemergence foliar-applied weed control, direct-seeded rice (greenhouse); assay type: in vivo, Brachiaria platyphylla
Source text: (§1) Seeds or nutlets of the desired test plant species were planted in a soil matrix prepared by mixing a loam or sandy loam soil (e.g., 28.6 percent silt, 18.8 percent clay, and 52.6 percent sand, with a pH of about 5.8 and an organic matter content of about 1.8 percent) and calcareous grit in an 80 to 20 ratio. The soil matrix was contained in plastic pots with a volume of 1 quart and a surface area of 83.6 square centimeters (cm^2). When required to ensure good germination and healthy plants, a fungicide treatment and/or other chemical or physical treatment was applied. The plants were grown for 8-22 days in a greenhouse with an approximate 14 hour (h) photoperiod which was maintained at about 29° C. during the day and 26° C. during the night. Nutrients (Peters Excel® 15-5-15 5-Ca 2-Mg and iron chelate) were applied in the irrigation solution as needed and water was added on a regular basis. Supplemental lighting was provided with overhead metal halide 1000-Watt lamps as necessary. The plants were employed for testing when they reached the first through fourth true leaf stage.
(§2) Treatments consisted of the acid or esters of 4-amino-3-chloro-6-(4-chloro-2-fluoro-3-methoxyphenyl)-5-fluoropyridine-2-carboxylic acid (Compound A), each formulated as an SC (suspension concentrate), and various insecticidal components alone and in combination. Forms of compound A were applied on an acid equivalent basis.
(§3) Treatment requirements were calculated based upon the rates being tested, the concentration of active ingredient or acid equivalent in the formulation, and a 12 milliliter (mL) application volume at a rate of 187 liters per hectare (L/ha).
(§4) For treatments comprised of formulated compounds, measured amounts of compounds were placed individually in 25 mL glass vials and diluted in a volume of 1.25% volume per volume (v/v) Agri-Dex® crop oil concentrate to obtain 12× stock solutions. […] Application solutions were prepared by adding an appropriate amount of each stock solution (e.g., 1 mL) and diluted to the appropriate final concentrations with the addition of […] of an aqueous mixture of 1.25% (v/v) crop oil concentrate so that the final spray solutions contained 1.25+/−0.05% (v/v) crop oil concentrate.
(§5) As required, additional water and/or 97:3 v/v acetone/DMSO was added to individual application solutions so that the final acetone and DMSO concentrations of the application solutions being compared were 8.1% and 0.25%, respectively.
(§6) All stock solutions and applications solutions were visually inspected for compound compatibility prior to application. Spray solutions were applied to the plant material with an overhead Mandel track sprayer equipped with 8002E nozzles calibrated to deliver 187 L/ha over an application area of 0.503 square meters (m^2) at a spray height of 18 to 20 inches (46 to 50 cm) above average plant canopy height. Control plants were sprayed in the same manner with the solvent blank.
(§7) The treated plants and control plants were placed in a greenhouse as described above and watered by sub-irrigation to prevent wash-off of the test compounds. After approximately 3 weeks, the condition of the test plants as compared to that of the untreated plants was determined visually and scored on a scale of 0 to 100 percent where 0 corresponds to no injury or growth inhibition and 100 corresponds to complete kill.
(§8) Colby's equation was used to determine the herbicidal effects expected from the mixtures (Colby, S. R. Calculation of the synergistic and antagonistic response of herbicide combinations. Weeds 1967, 15, 20-22.).
(§9) The following equation was used to calculate the expected activity of mixtures containing two active ingredients, A and B: Expected=A+B−(A×B/100)

CYPIR = assay type: in vivo, Cyperus iria
Source text: as §1, §2, §3, §4, §5, §6, §7, §8, §9

DIGSA = assay type: in vivo, Digitaria sanguinalis
Description: as §1, with “When required to ensure good germination and healthy plants, a fungicide treatment and/or other chemical or physical treatment was applied.” left out
as §2, §4, §5, §6, §7, §8, §9

LEFCH = experiment: whole plant or invertebrate; assay type: in vivo, Leptochloa chinensis
Description: as §1, with “When required to ensure good germination and healthy plants, a fungicide treatment and/or other chemical or physical treatment was applied.” left out
as §2, §4, §5, §6, §7, §8, §9

Compound: COc1c(Cl)ccc(-c2nc(C(=O)OCc3ccccc3)c(Cl)c(N)c2F)c1F [Compound A Benzyl Ester]
- Visual Weed Control (%) - 20 DAA BRAPP Obs (BRAPP; 4.38 g ae/ha alone): 75%
- Visual Weed Control (%) - 20 DAA BRAPP Obs (BRAPP; 8 g ae/ha alone): 55%
- Visual Weed Control (%) - 21 DAA BRAPP Obs (BRAPP; 8 g ae/ha alone): 70%
- Visual Weed Control (%) - 20 DAA BRAPP Obs (BRAPP; 8.75 g ae/ha alone): 75%
- Visual Weed Control (%) - 20 DAA BRAPP Obs (BRAPP; 17.5 g ae/ha alone): 95%
- Visual Weed Control (%) - 22 DAA CYPIR Obs (CYPIR; 4.38 g ae/ha alone): 70%
- Visual Weed Control (%) - 21 DAA CYPIR Obs (CYPIR; 8 g ae/ha alone): 50%
- Visual Weed Control (%) - 21 DAA CYPIR Obs (CYPIR; 21 DAA, 8 g ae/ha alone): 50%
- Visual Weed Control (%) - 20 DAA DIGSA Obs (DIGSA; 4.38 g ae/ha alone): 40% and 25%
- Visual Weed Control (%) - 20 DAA DIGSA Obs (DIGSA; 8 g ae/ha alone): 20%
- Visual Weed Control (%) - 21 DAA DIGSA Obs (DIGSA; 8 g ae/ha alone): 10%
- Visual Weed Control (%) - 22 DAA DIGSA Obs (DIGSA; 8 g ae/ha alone): 13%
- Visual Weed Control (%) - 20 DAA DIGSA Obs (DIGSA; 16 g ae/ha alone): 23% and 30%
- Visual Weed Control (%) - 22 DAA DIGSA Obs (DIGSA; 16 g ae/ha alone): 18%
- Visual Weed Control (%) - 20 DAA DIGSA Obs (DIGSA; 17.5 g ae/ha alone): 15%
- Visual Weed Control (%) - 19 DAA DIGSA Obs (DIGSA; 8 g ae/ha alone): 30%
- Visual Weed Control (%) - 19 DAA DIGSA Obs (DIGSA; 16 g ae/ha alone): 35%
- Visual Weed Control (%) - 19 DAA DIGSA Obs (DIGSA; 32 g ae/ha alone): 40%
- Visual Weed Control (%) - 22 DAA DIGSA Obs (DIGSA; 22 DAA, 8 g ae/ha alone): 10% and 13%
- Visual Weed Control (%) - 22 DAA DIGSA Obs (DIGSA; 22 DAA, 8 g ae/ha alone, second part of Table 18): 13%
- Visual Weed Control (%) - 22 DAA DIGSA Obs (DIGSA; 22 DAA, 16 g ae/ha alone): 25% and 18% and 20%
- Visual Weed Control (%) - 22 DAA DIGSA Obs (DIGSA; 22 DAA, 16 g ae/ha alone, second part of Table 18): 18%
- Visual Weed Control (%) - 22 DAA DIGSA Obs (DIGSA; 22 DAA, 32 g ae/ha alone): 40% and 28% and 25%
- Visual Weed Control (%) - 22 DAA DIGSA Obs (DIGSA; 22 DAA, 32 g ae/ha alone, second part of Table 18): 28%
- Visual Weed Control (%) - 20 DAA DIGSA Obs (DIGSA; 32 g ae/ha alone): 30% and 40%
- Visual Weed Control (%) - 22 DAA DIGSA Obs (DIGSA; 32 g ae/ha alone): 28%
- Visual Weed Control (%) - 20 DAA LEFCH Obs (LEFCH; 4.38 g ae/ha alone): 15% and 20%
- Visual Weed Control (%) - 21 DAA LEFCH Obs (LEFCH; 4.38 g ae/ha alone): 10%
- Visual Weed Control (%) - 19 DAA LEFCH Obs (LEFCH; 8 g ae/ha alone): 45%
- Visual Weed Control (%) - 20 DAA LEFCH Obs (LEFCH; 8 g ae/ha alone): 15%
- Visual Weed Control (%) - 20 DAA LEFCH Obs (LEFCH; 8.75 g ae/ha alone): 30% and 35%
- Visual Weed Control (%) - 21 DAA LEFCH Obs (LEFCH; 8.75 g ae/ha alone): 25%
- Visual Weed Control (%) - 19 DAA LEFCH Obs (LEFCH; 16 g ae/ha alone): 45%
- Visual Weed Control (%) - 20 DAA LEFCH Obs (LEFCH; 16 g ae/ha alone): 25%
- Visual Weed Control (%) - 20 DAA LEFCH Obs (LEFCH; 17.5 g ae/ha alone): 50% and 60%
- Visual Weed Control (%) - 21 DAA LEFCH Obs (LEFCH; 17.5 g ae/ha alone): 30%
- Visual Weed Control (%) - 19 DAA LEFCH Obs (LEFCH; 19 DAA, 8 g ae/ha alone): 45%
- Visual Weed Control (%) - 19 DAA LEFCH Obs (LEFCH; 19 DAA, 16 g ae/ha alone): 45%
- Visual Weed Control (%) - 19 DAA LEFCH Obs (LEFCH; 19 DAA, 32 g ae/ha alone): 50%
- Visual Weed Control (%) - 21 DAA LEFCH Obs (LEFCH; 21 DAA, 8 g ae/ha alone): 15%
- Visual Weed Control (%) - 21 DAA LEFCH Obs (LEFCH; 21 DAA, 16 g ae/ha alone): 15%
- Visual Weed Control (%) - 21 DAA LEFCH Obs (LEFCH; 21 DAA, 17.5 g ae/ha alone): 50%
- Visual Weed Control (%) - 21 DAA LEFCH Obs (LEFCH; 21 DAA, 32 g ae/ha alone): 25%
- Visual Weed Control (%) - 19 DAA LEFCH Obs (LEFCH; 32 g ae/ha alone): 50%
- Visual Weed Control (%) - 20 DAA LEFCH Obs (LEFCH; 32 g ae/ha alone): 30%
- pest or weed control at 4.38 g/ha (LEFCH; Dinebra chinensis, post-emergence, 528 h, 4.38 g ae/ha alone, read-out: Visual Weed Control (%) - 22 DAA LEFCH Obs): 30%
- pest or weed control at 8 g/ha (LEFCH; Dinebra chinensis, post-emergence, 528 h, 8 g ae/ha alone, read-out: Visual Weed Control (%) - 22 DAA LEFCH Obs): 25%
- pest or weed control at 16 g/ha (LEFCH; Dinebra chinensis, post-emergence, 528 h, 16 g ae/ha alone, read-out: Visual Weed Control (%) - 22 DAA LEFCH Obs): 30%
- pest or weed control at 8 g/ha (LEFCH; Dinebra chinensis, post-emergence, 528 h, 22 DAA, 8 g ae/ha alone, second part of Table 18, read-out: Visual Weed Control (%) - 22 DAA LEFCH Obs): 18%
- pest or weed control at 16 g/ha (LEFCH; Dinebra chinensis, post-emergence, 528 h, 22 DAA, 16 g ae/ha alone, read-out: Visual Weed Control (%) - 22 DAA LEFCH Obs): 25%
- pest or weed control at 16 g/ha (LEFCH; Dinebra chinensis, post-emergence, 528 h, 22 DAA, 16 g ae/ha alone, second part of Table 18, read-out: Visual Weed Control (%) - 22 DAA LEFCH Obs): 43%
- pest or weed control at 32 g/ha (LEFCH; Dinebra chinensis, post-emergence, 528 h, 22 DAA, 32 g ae/ha alone, read-out: Visual Weed Control (%) - 22 DAA LEFCH Obs): 55%
- pest or weed control at 32 g/ha (LEFCH; Dinebra chinensis, post-emergence, 528 h, 22 DAA, 32 g ae/ha alone, second part of Table 18, read-out: Visual Weed Control (%) - 22 DAA LEFCH Obs): 53%
- pest or weed control at 32 g/ha (LEFCH; Dinebra chinensis, post-emergence, 528 h, 32 g ae/ha alone, read-out: Visual Weed Control (%) - 22 DAA LEFCH Obs): 60%

Compound: CC(c1ccc(C(F)(F)F)nc1)S(C)(=O)=NC#N (centres unmarked) [Sulfoxaflor, N-[methyloxido[1-[6-(trifluoromethyl)-3-pyridinyl]ethyl]-λ^4-sulfanylidene]cyanamide]
- Visual Weed Control (%) - 21 DAA CYPIR Obs (CYPIR; 21 DAA, 75 g ai/ha alone): 0%
- Visual Weed Control (%) - 21 DAA CYPIR Obs (CYPIR; 21 DAA, 150 g ai/ha alone): 0%
- Visual Weed Control (%) - 21 DAA LEFCH Obs (LEFCH; 21 DAA, 12.5 g ai/ha alone): 0%
- Visual Weed Control (%) - 21 DAA LEFCH Obs (LEFCH; 21 DAA, 25 g ai/ha alone): 0%
- Visual Weed Control (%) - 21 DAA LEFCH Obs (LEFCH; 21 DAA, 37.5 g ai/ha alone): 0%
- Visual Weed Control (%) - 21 DAA LEFCH Obs (LEFCH; 21 DAA, 50 g ai/ha alone): 0%
- Visual Weed Control (%) - 21 DAA LEFCH Obs (LEFCH; 21 DAA, 75 g ai/ha alone): 0%
- Visual Weed Control (%) - 21 DAA LEFCH Obs (LEFCH; 21 DAA, 150 g ai/ha alone): 0%
